Measured values as given in patent publication US20170037028A1 (BAYER PHARMA AKTIENGESELLSCHAFT, priority 2013, published 2017).

What follows are molecules tested against T1, GLUT1 (Homo sapiens, UniProt P11166) (assay: Indirect measurement of GLUT1 activity by quantification of intracellular ATP levels (glucose induced ATP increase)). Details: read-out: IC50 regarding glucose induced ATP increase (GLUT1 inhibition).
T1 sequence (P11166 1-492): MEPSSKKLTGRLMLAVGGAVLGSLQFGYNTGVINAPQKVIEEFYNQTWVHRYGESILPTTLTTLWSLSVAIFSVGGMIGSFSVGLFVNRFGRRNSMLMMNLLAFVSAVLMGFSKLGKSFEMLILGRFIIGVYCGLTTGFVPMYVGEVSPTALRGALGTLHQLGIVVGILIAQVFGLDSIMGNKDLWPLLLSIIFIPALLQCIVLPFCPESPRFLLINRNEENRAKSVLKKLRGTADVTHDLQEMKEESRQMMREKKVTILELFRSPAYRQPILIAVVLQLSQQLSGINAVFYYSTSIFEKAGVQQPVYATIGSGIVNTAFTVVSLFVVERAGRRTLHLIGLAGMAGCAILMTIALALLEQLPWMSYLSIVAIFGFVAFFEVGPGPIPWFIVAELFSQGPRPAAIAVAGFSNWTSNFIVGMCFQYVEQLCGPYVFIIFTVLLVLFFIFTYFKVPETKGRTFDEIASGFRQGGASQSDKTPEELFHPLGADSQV
Format: cell-based
Design: endogenous in cells; host or cells: DLD1 or CHO-K1
Summary of the method: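 Intracellular ATP was measured by CellTiter-Glo luminescence as an indirect readout of transport: glucose-driven for GLUT1, fructose-driven for GLUT2. DLD1 or CHO-K1 cells were used alongside an oxidative phosphorylation inhibitor. Beforehand, cells were held overnight in glucose-free 1% FCS medium to deplete ATP.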
`CCc1noc(Cn2nc(C(F)(F)F)c(NC(=O)c3cc(C(N)=O)nc4cc(F)ccc34)c2C)n1` [Example 1537] showed an IC50 of 185 nM. Molecule `Cc1nn(CC2CCN(C(=O)OC(C)(C)C)CC2)c(C)c1NC(=O)c1cc(C(N)=O)nc2ccccc12` [Example 405, tert-butyl 4-[(4-{[(2-carbamoylquinolin-4-yl)carbonyl]amino}-3,5-dimethyl-1H-pyrazol-1-yl)methyl]piperidine-1-carboxylate] has an IC50 of 242 nM. Work on `COC(=O)[C@@H](NC(=O)c1ccc(Cn2nc(C)c(NC(=O)c3cc(C(F)(F)F)nc4ccc(Br)cc34)c2C)cc1)[C@@H](C)O` [Example 1104] yielded an IC50 of 47.8 nM. With `Cc1nn(Cc2ccc(F)cc2)c(C)c1NC(=O)c1cc(C(F)(F)F)nc2ccc(C(=O)O)cc12` [Example 1267] the IC50 was 2710 nM. With `CCNC(=O)c1ccc(Cn2nc(C)c(NC(=O)c3cc(C(F)(F)F)nc4ccc(Br)cc34)c2C)cc1` [Example 1028] the IC50 was 3 nM. `Cc1nn(Cc2ccc(C(=O)O)cc2)c(C)c1NC(=O)c1cc(C(F)(F)F)nc2ccc(Br)cc12` [Example 132, 4-{[4-({[6-bromo-2-(trifluoromethyl)quinolin-4-yl]carbonyl}amino)-3,5-dimethyl-1H-pyrazol-1-yl]methyl}benzoic acid] was tested, and the IC50 was 5560 nM. For `Cc1ccc2nc(C)cc(C(=O)Nc3c(C(F)(F)F)nn(Cc4ccc(F)cc4)c3C)c2c1` [Example 73, N-[1-(4-fluorobenzyl)-5-methyl-3-(trifluoromethyl)-1H-pyrazol-4-yl]-2,6-dimethylquinoline-4-carboxamide], the IC50 was 177 nM. With `Cc1nn(Cc2ccc(C(=O)NCC3CCCCC3)cc2)c(C)c1NC(=O)c1cc(C(F)(F)F)nc2ccc(Br)cc12` [Example 1251] the IC50 was 1870 nM. Molecule `COc1ccc(Cn2nc(C(F)(F)F)c(NC(=O)c3cc(C(N)=O)nc4cc(F)c(F)cc34)c2C)cc1` [Example 279, 6,7-difluoro-N^4-[1-(4-methoxybenzyl)-5-methyl-3-(trifluoromethyl)-1H-pyrazol-4-yl]quinoline-2,4-dicarboxamide] has an IC50 of 1.4 nM. For `CNC(=O)CCNC(=O)c1ccc(Cn2nc(C)c(NC(=O)c3cc(C(F)(F)F)nc4ccc(Br)cc34)c2C)cc1` [Example 1157], the IC50 was 150 nM. For `Cc1nn(Cc2cccc(OC(F)(F)F)c2)c(C)c1NC(=O)c1cc(C(N)=O)nc2cc(F)c(Cl)cc12` [Example 1583], the IC50 was 11.4 nM. With `Cc1nn(Cc2ccc(C(C)(C)C)cc2)c(C)c1NC(=O)c1cc(C(N)=O)nc2ccccc12` [Example 1369] the IC50 was 143 nM. `Cc1c(NC(=O)c2cc(C(F)(F)F)nc3ccc(Br)cc23)c(C(F)(F)F)nn1Cc1ccc(C(=O)NCCO)cn1` [Example 1065] gave an IC50 of 18.7 nM. Work on `Cc1c(NC(=O)c2cc(C(N)=O)nc3cc(F)c(Br)cc23)c(C(F)(F)F)nn1Cc1ccc(C#N)cc1` [Example 1611] yielded an IC50 of 0.8 nM. For `Cc1c(NC(=O)c2cc(C(N)=O)nc3cccc(F)c23)c(C(F)(F)F)nn1Cc1ccc(C#N)cc1` [Example 249, N^4-[1-(4-cyanobenzyl)-5-methyl-3-(trifluoromethyl)-1H-pyrazol-4-yl]-5-fluoroquinoline-2,4-dicarboxamide], the IC50 was 1 nM. In the case of `Cc1nn(Cc2cccc(S(C)(=O)=O)c2)c(C)c1NC(=O)c1cc(C(N)=O)nc2ccccc12` [Example 1642], the IC50 is reported as 289 nM. For `Cc1nn(Cc2ccc(C(=O)NCCN(CCO)CCO)cc2)c(C)c1NC(=O)c1cc(C(F)(F)F)nc2ccc(Br)cc12` [Example 1121], the IC50 was 65.5 nM. Molecule `Cc1nn(Cc2ccc(OC(F)(F)F)cc2)c(C)c1NC(=O)c1cc(C(F)(F)F)nc2c(Cl)cc(Cl)cc12` [Example 60, 6,8-dichloro-N-{3,5-dimethyl-1-[4-(trifluoromethoxy)benzyl]-1H-pyrazol-4-yl}-2-(trifluoromethyl)quinoline-4-carboxamide] has an IC50 of 97.9 nM. `Cc1nn(Cc2ccccc2C#N)c(C)c1NC(=O)c1cc(C(C)C)nc2ccc(Br)cc12` [Example 118, 6-bromo-N-[1-(2-cyanobenzyl)-3,5-dimethyl-1H-pyrazol-4-yl]-2-(propan-2-yl)quinoline-4-carboxamide] was tested, and the IC50 was 0.5 nM. For `Cc1nn(CCc2cccc(F)c2)c(C)c1NC(=O)c1cc(C(N)=O)nc2ccccc12` [Example 1148], the IC50 was 122 nM.
